In patent publication US10822349B2, “Macrocyclic purines for the treatment of viral infections” (JANSSEN SCIENCES IRELAND UNLIMITED COMPANY, priority 2012, dated 2020):

Key:
[1] = target: T1, human TLR7 (Homo sapiens, UniProt Q9NYK1); assay: TLR7 cellular reporter assay (HEK293 TLR7-NFκB-luc); format: cell-based; conditions: lowest effective concentration; HEK293 transiently transfected with TLR7 and NFκB-luc; 6 hours incubation
T1 construct: expressed in transfected cells; host or cells: HEK293
T1 sequence (Q9NYK1 27-1049): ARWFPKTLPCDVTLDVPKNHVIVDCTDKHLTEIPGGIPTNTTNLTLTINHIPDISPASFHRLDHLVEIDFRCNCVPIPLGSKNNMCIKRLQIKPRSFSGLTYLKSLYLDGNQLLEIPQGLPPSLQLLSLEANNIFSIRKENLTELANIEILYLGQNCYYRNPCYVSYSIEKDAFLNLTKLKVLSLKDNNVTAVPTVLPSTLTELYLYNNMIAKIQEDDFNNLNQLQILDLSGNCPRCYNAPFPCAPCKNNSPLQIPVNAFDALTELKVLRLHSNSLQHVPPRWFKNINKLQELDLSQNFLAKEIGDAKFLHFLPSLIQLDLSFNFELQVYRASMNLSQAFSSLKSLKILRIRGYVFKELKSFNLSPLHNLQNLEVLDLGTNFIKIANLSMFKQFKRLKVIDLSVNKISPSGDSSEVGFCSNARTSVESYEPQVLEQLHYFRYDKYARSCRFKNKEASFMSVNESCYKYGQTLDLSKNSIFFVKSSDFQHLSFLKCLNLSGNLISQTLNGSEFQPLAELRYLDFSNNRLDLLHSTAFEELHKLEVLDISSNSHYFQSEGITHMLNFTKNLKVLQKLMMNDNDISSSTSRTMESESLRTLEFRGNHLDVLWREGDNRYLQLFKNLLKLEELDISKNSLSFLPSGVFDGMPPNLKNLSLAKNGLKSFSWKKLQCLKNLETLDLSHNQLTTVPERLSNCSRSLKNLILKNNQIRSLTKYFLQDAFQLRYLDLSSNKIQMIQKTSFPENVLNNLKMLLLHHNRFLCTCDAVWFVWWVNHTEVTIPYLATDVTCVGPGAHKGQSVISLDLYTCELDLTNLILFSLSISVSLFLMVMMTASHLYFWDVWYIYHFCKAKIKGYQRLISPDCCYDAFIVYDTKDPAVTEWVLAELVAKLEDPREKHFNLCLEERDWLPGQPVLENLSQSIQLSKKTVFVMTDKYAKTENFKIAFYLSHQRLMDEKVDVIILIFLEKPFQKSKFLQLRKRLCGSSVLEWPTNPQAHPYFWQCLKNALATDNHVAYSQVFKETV
Procedure: The ability of compounds to activate human TLR7 and TLR8 was assessed in a cellular reporter assay using HEK293 cells transiently transfected with a TLR7 or TLR8 expression vector and NFκB-luc reporter construct. Briefly, HEK293 cells were grown in culture medium (DMEM supplemented with 10% FCS and 2 mM Glutamine). For transfection of cells in 10 cm dishes, cells were detached with Trypsin-EDTA, transfected with a mix of CMV-TLR7 or TLR8 plasmid (750 ng), NFκB-luc plasmid (375 ng) and a transfection reagent and incubated 48 hours at 37° C. in a humidified 5% CO2 atmosphere. Transfected cells were then detached with Trypsin-EDTA, washed in PBS and resuspended in medium to a density of 1.67×10^5 cells/mL. Thirty microliters of cells were then dispensed into each well in 384-well plates, where 10 μL of compound in 4% DMSO was already present. Following 6 hours incubation at 37° C., 5% CO2, the luciferase activity was determined by adding 15 μl of Steady Lite Plus substrate (Perkin Elmer) to each well and readout performed on a ViewLux ultraHTS microplate imager (Perkin Elmer). Dose response curves were generated from measurements performed in quadruplicates. Lowest effective concentrations (LEC) values, defined as the concentration that induces an effect which is at least two fold above the standard deviation of the assay, were determined for each compound.

[2] = tested on: interferon production in human PBMC; assay: Interferon production in human PBMC, read out on HEK-ISRE-luc reporter cells; format: cell-based; conditions: Homo sapiens, PBMC, 24 h, lowest effective concentration, PBMC supernatant after overnight incubation transferred to HEK-ISRE-luc cells, read-out: PBMC HEK-ISRE-luc (LEC; μM)
Procedure: Activation of human TLR7 results in robust production of interferon by plasmacytoid dendritic cells present in human blood. The potential of compounds to induce interferon was evaluated by determination of interferon in the conditioned media from peripheral blood mononuclear cells (PBMC). The presence of interferon in the samples was determined, using an interferon reporter cell line stably expressing an interferon-stimulated responsive elements (ISRE)-luc reporter construct. The ISRE element with sequence GAAACTGAAACT (SEQ ID: 1) is highly responsive to the STAT1-STAT2-IRF9 transcription factor, which becomes activated upon binding of IFN-I to the IFN receptor. Briefly, PBMCs were prepared from buffy coats of at least two donors using a standard Ficoll centrifugation protocol. Isolated PBMCs were resuspended in RPMI medium supplemented with 10% human AB serum and 2×10^5 cells/well were dispensed into 384-well plates containing compounds (70 μL total volume). After overnight incubation of the PBMCs with the compounds, 10 μL of supernatant was transferred to 384-well plates containing 5×10^3 HEK-ISRE-luc cells/well in 30 μL (plated the day before). Following 24 hours of incubation, activation of the ISRE elements was measured by assaying luciferase activity using 40 μL/well Steady Lite Plus substrate (Perkin Elmer) and measured with ViewLux ultraHTS microplate imager (Perkin Elmer). The stimulating activity of each compound on the HEK-ISRE-luc cells was reported as LEC. The LEC in turn indicates the degree of ISRE activation on transfer of a defined amount of PBMC culture medium. Recombinant interferon alfa-2a (Roferon-A) was used as a standard control compound.

SMILES | HEK293 TLR7-NFκB-luc (LEC; μM) [1] [µM] | minimal effective concentration [2] [µM]
Nc1nc2nc3c1nc(O)n3Cc1cccc(c1)CC(=O)NCCCO2 [Compound 5] | 0.24 | 0.044
Nc1nc2nc3c1nc(O)n3Cc1cccc(c1)OCC(=O)NCCCO2 [Compound 80] | 0.041 | 0.087
Nc1nc2nc3c1nc(O)n3Cc1cccc(c1)CCCCCC(CO)N2 (stereo not shown) [Compound 10] | 5.26 | 0.53
Nc1nc2nc3c1nc(O)n3Cc1cccc(c1)OCCCCO2 [Compound 11] | 0.050 | 0.022
Nc1nc2nc3c1ncn3Cc1ncccc1OC/C=C/CCO2 [Compound 78] | 9.68 | > 25
Nc1nc2nc3c1nc(O)n3Cc1ccc(F)c(c1)OC/C=C/CN2 [Compound 90] | 0.063 | –
Nc1nc2nc3c1ncn3Cc1ncccc1OC/C=C\CCO2 [Compound 79] | 2.34 | 1.78
Nc1nc2nc3c1nc(O)n3Cc1cccc(c1)OC/C=C/CO2 [Compound 23] | 0.043 | 0.012
Nc1nc2nc3c1nc(O)n3Cc1cc(ccn1)OCCCCCO2 [Compound 58] | 0.63 | 0.086
Nc1nc2nc3c1nc(O)n3Cc1cccc(n1)COCCCCO2 [Compound 24] | 1.05 | 0.15
Nc1nc2nc3c1nc(O)n3Cc1ccccc1C/C=C\CCO2 [Compound 48] | 0.64 | 2.04
COc1ccc2cc1OCCCCOc1nc(N)c3nc(O)n(c3n1)C2 [Compound 56] | 0.056 | 0.01
Nc1nc2nc3c1nc(O)n3Cc1cccc(c1)OC/C=C\CCO2 [Compound 26] | 0.027 | 0.093
Nc1nc2nc3c1nc(O)n3CCc1cccc(c1)OC/C=C\CO2 [Compound 84] | 3.4 | 0.51
Nc1nc2nc3c1nc(O)n3Cc1cccc(c1)CCCCCO2 [Compound 2] | 0.51 | 0.22
COc1c2cccc1OC/C=C/COc1nc(N)c3nc(O)n(c3n1)C2 [Compound 61] | 4.7 | 4.98
COc1ccc2cc1Cn1c(O)nc3c(N)nc(nc31)OCCCCC2 [Compound 69] | 0.2 | 0.039
COc1cc2cc(c1)OC/C=C\COc1nc(N)c3nc(O)n(c3n1)C2 [Compound 65] | 0.038 | 0.03
Nc1nc2nc3c1nc(O)n3CCc1cccc(c1)OCCCCO2 [Compound 64] | 1.49 | 0.5

SMILES | HEK293 TLR7-NFκB-luc (LEC; μM) [1] [µM] | minimal effective concentration [2] [µM]
Nc1nc2nc3c1nc(O)n3Cc1cccc(c1)OC/C=C/CCC(CO)N2 (stereo not shown) [Compound 18] | 0.82 | 0.056
Nc1nc2nc3c1nc(O)n3Cc1ncccc1OC/C=C/CCO2 [Compound 44] | 5.77 | 0.62
Nc1nc2nc3c1nc(O)n3CCc1cccc(c1)C/C=C/CCO2 [Compound 82] | 3.95 | –
Nc1nc2nc3c1nc(O)n3Cc1cccc(c1)C/C=C/CCCO2 [Compound 16] | 0.375 | 0.11
Nc1nc2nc3c1ncn3Cc1cccc(c1)OC/C=C\CO2 [Compound 55] | >25 | 15.3
Nc1nc2nc3c1nc(O)n3Cc1cccc(n1)CC/C=C\CCO2 [Compound 46] | 6.49 | 1.13
Nc1nc2nc3c1nc(O)n3Cc1ncccc1OC/C=C\CCO2 [Compound 45] | 0.108 | 0.01
Nc1nc2nc3c1nc(O)n3Cc1ccc(nc1)OCC/C=C/CCO2 [Compound 25] | 20.22 | 3.61
COc1ccc2cc1C/C=C\CCOc1nc(N)c3nc(O)n(c3n1)C2 [Compound 67] | 0.0024 | 0.0028
Nc1nc2nc3c1nc(O)n3Cc1cccc(c1)C/C=C/CCC(CO)N2 (stereo not shown) [Compound 7] | 0.87 | 0.31
COc1ccc2cc1Cn1c(O)nc3c(N)nc(nc31)OCC/C=C/C2 [Compound 73] | 0.045 | 0.01
Nc1nc2nc3c1nc(O)n3Cc1ccccc1OC/C=C\CO2 [Compound 77] | 0.53 | 0.1
CC1CCOc2cccc(c2)Cn2c(O)nc3c(N)nc(nc32)OC1 (stereo not shown) [Compound 71] | 0.12 | 0.04
Nc1nc2nc3c1nc(O)n3Cc1ccc(F)c(c1)OCCCCO2 [Compound 91] | 0.14 | –
Nc1nc2nc3c1nc(O)n3Cc1ccc(F)c(c1)OCCCCN2 [Compound 92] | 0.47 | –
Nc1nc2nc3c1nc(O)n3Cc1ccc(F)c(c1)OC/C=C/CO2 [Compound 87] | 0.034 | –
Nc1nc2nc3c1nc(O)n3Cc1ccc(F)c(c1)OC/C=C\CN2 [Compound 89] | 0.4 | –
Nc1nc2nc3c1nc(O)n3Cc1ccc(F)c(c1)OC/C=C\CO2 [Compound 88] | 0.11 | –
